# In ChEMBL document CHEMBL1255419, “Pharmacokinetic-pharmacodynamic assessment of faropenem in a lethal murine Bacillus anthracis inhalation postexposure prophylaxis model” (Antimicrob Agents Chemother, 2010):
# The source made the active and inactive calls. No cut-off for these calls is given here.
# Experiments:
# Bacillus anthracis [1] = test: Antibacterial activity against Bacillus anthracis Ames infected in BALB/c mouse assessed as survival rate at 80 mg/kg, ip administered 24 hrs postinfection at 12 hrs interval for 14 days measured on day 27; assay type: functional; conditions: route intraperitoneal
# Bacillus anthracis [2] = test: Antibacterial activity against Bacillus anthracis Ames infected in BALB/c mouse assessed as survival rate at 20 mg/kg, ip administered 24 hrs postinfection at 12 hrs interval for 14 days measured on day 27; assay type: functional; conditions: route intraperitoneal
# [3] = Plasma protein binding in CD1 mouse at 5 ug/ml by ultrafiltration technique; assay type: ADME, cell-free; conditions: read-out: PPB (converted)
# Bacillus anthracis [4] = test: microbe, parasite or virus in culture; assay type: functional
# Bacillus anthracis [5] = test: f%TMIC in Bacillus anthracis Ames infected pharmacokinetic-pharmacodynamic model at 0.5 ug/ml; assay type: functional
# Homo sapiens [6] = organism: Homo sapiens; test: Plasma protein binding in human at 1000 ug/ml by ultrafiltration technique; conditions: read-out: PPB (converted)
# Bacillus anthracis [7] = test: microbe, parasite or virus in culture; assay type: functional; remark: listed apart in the source
# [8] = f%TMIC in ip dosed Bacillus anthracis Ames infected BALB/c mouse model at ED50 administered 24 hrs postinfection at 4 hrs interval for 14 days measured on day 27; assay type: functional
# Homo sapiens [9] = organism: Homo sapiens; test: Plasma protein binding in human at 5 ug/ml by ultrafiltration technique; conditions: read-out: PPB (converted)
# Bacillus anthracis [10] = test: Antibacterial activity against Bacillus anthracis Ames infected in BALB/c mouse assessed as survival rate at 20 mg/kg, ip administered 24 hrs postinfection at 6 hrs interval for 14 days measured on day 27; assay type: functional; conditions: route intraperitoneal
# Bacillus anthracis [11] = test: f%TMIC in Bacillus anthracis Ames infected pharmacokinetic-pharmacodynamic model at 0.25 ug/ml; assay type: functional
# Bacillus anthracis [12] = test: Antibacterial activity against Bacillus anthracis Ames infected in BALB/c mouse assessed as survival rate at 80 mg/kg, ip administered 24 hrs postinfection at 6 hrs interval for 14 days measured on day 27; assay type: functional; conditions: route intraperitoneal
# Streptococcus pneumoniae [13] = test: Antibacterial activity against Streptococcus pneumoniae clinical isolates; assay type: functional
# Bacillus anthracis [14] = test: microbe, parasite or virus in culture; assay type: functional; remark: listed apart in the source
# Bacillus anthracis [15] = test: Antibacterial activity against Bacillus anthracis Ames infected in BALB/c mouse assessed as decrease in bacterial load in lungs at 20 mg/kg, ip administered 24 hrs postinfection at 4 hrs interval for 14 days measured on day 27; assay type: functional, organism-based; parameters: dose 20 mg/kg
# Bacillus anthracis [16] = test: Antibacterial activity against Bacillus anthracis Ames infected in BALB/c mouse assessed as survival rate at 20 mg/kg, ip administered 24 hrs postinfection at 4 hrs interval for 14 days measured on day 27; assay type: functional; conditions: route intraperitoneal
# [17] = f%TMIC in ip dosed Bacillus anthracis Ames infected BALB/c mouse model at ED99 administered 24 hrs postinfection at 4 hrs interval for 14 days measured on day 27; assay type: functional
# Bacillus anthracis [18] = test: Antibacterial activity against Bacillus anthracis Ames infected in BALB/c mouse assessed as survival rate at 80 mg/kg, ip administered 24 hrs postinfection at 4 hrs interval for 14 days measured on day 27; assay type: functional; conditions: route intraperitoneal
# Bacillus anthracis [19] = test: microbe, parasite or virus in culture; assay type: functional; remark: listed apart in the source
# Bacillus anthracis [20] = test: microbe, parasite or virus in culture; assay type: functional; remark: listed apart in the source
# Bacillus anthracis [21] = test: Antibacterial activity against Bacillus anthracis Ames infected in BALB/c mouse assessed as survival rate at 10 mg/kg, ip administered 24 hrs postinfection at 12 hrs interval for 14 days measured on day 27; assay type: functional; conditions: route intraperitoneal
# [22] = Plasma protein binding in CD1 mouse at 1000 ug/ml by ultrafiltration technique; assay type: ADME, cell-free; conditions: read-out: PPB (converted)
# Bacillus anthracis [23] = test: microbe, parasite or virus in culture; assay type: functional; remark: listed apart in the source
# Bacillus anthracis [24] = test: microbe, parasite or virus in culture; assay type: functional; remark: listed apart in the source
# [25] = f%TMIC in Bacillus anthracis Ames infected human model at 600 […], BID; assay type: functional
# Bacillus anthracis [26] = test: microbe, parasite or virus in culture; assay type: functional; remark: listed apart in the source
# Bacillus anthracis [27] = test: microbe, parasite or virus in culture; assay type: functional; remark: listed apart in the source
# Bacillus anthracis [28] = test: microbe, parasite or virus in culture; assay type: functional; remark: listed apart in the source
# Bacillus anthracis [29] = test: microbe, parasite or virus in culture; assay type: functional; remark: listed apart in the source
# Bacillus anthracis [30] = test: microbe, parasite or virus in culture; assay type: functional; remark: listed apart in the source
# Streptococcus pneumoniae [31] = test: f%TMIC in Streptococcus pneumoniae infected pharmacokinetic-pharmacodynamic model; assay type: functional
# Bacillus anthracis [32] = test: microbe, parasite or virus in culture; assay type: functional; remark: listed apart in the source
# Bacillus anthracis [33] = test: microbe, parasite or virus in culture; assay type: functional; remark: listed apart in the source
# Bacillus anthracis [34] = test: Antibacterial activity against beta-lactamase Bla1 and Bla2-producing Bacillus anthracis Sterne by broth microdilution method; assay type: functional
# Bacillus anthracis [35] = test: Antibacterial activity against Bacillus anthracis Ames infected in BALB/c mouse assessed as survival rate at 40 mg/kg, ip administered 24 hrs postinfection at 6 hrs interval for 14 days measured on day 27; assay type: functional; conditions: route intraperitoneal
# Bacillus anthracis [36] = test: microbe, parasite or virus in culture; assay type: functional; remark: listed apart in the source
# Bacillus anthracis [37] = test: microbe, parasite or virus in culture; assay type: functional; remark: listed apart in the source
# Bacillus anthracis [38] = test: microbe, parasite or virus in culture; assay type: functional; remark: listed apart in the source
# Bacillus anthracis [39] = test: Antibacterial activity against Bacillus anthracis Ames infected in BALB/c mouse assessed as survival rate at 10 mg/kg, ip administered 24 hrs postinfection at 6 hrs interval for 14 days measured on day 27; assay type: functional; conditions: route intraperitoneal
# Bacillus anthracis [40] = test: microbe, parasite or virus in culture; assay type: functional; remark: listed apart in the source
# Bacillus anthracis [41] = test: Antibacterial activity against Bacillus anthracis Ames infected in BALB/c mouse assessed as survival rate at 40 mg/kg, ip administered 24 hrs postinfection at 4 hrs interval for 14 days measured on day 27; assay type: functional; conditions: route intraperitoneal
# Bacillus anthracis [42] = test: Antibacterial activity against Bacillus anthracis Ames infected in BALB/c mouse assessed as survival rate at 10 mg/kg, ip administered 24 hrs postinfection at 4 hrs interval for 14 days measured on day 27; assay type: functional; conditions: route intraperitoneal
# Bacillus anthracis [43] = test: microbe, parasite or virus in culture; assay type: functional; remark: listed apart in the source
# Bacillus anthracis [44] = test: Antibacterial activity against Bacillus anthracis Ames infected in BALB/c mouse assessed as survival rate at 40 mg/kg, ip administered 24 hrs postinfection at 12 hrs interval for 14 days measured on day 27; assay type: functional; conditions: route intraperitoneal
# Bacillus anthracis [45] = test: microbe, parasite or virus in culture; assay type: functional; remark: listed apart in the source
# Bacillus anthracis [46] = test: microbe, parasite or virus in culture; assay type: functional; remark: listed apart in the source
# Bacillus anthracis [47] = test: microbe, parasite or virus in culture; assay type: functional; remark: listed apart in the source
# Bacillus anthracis [48] = test: microbe, parasite or virus in culture; assay type: functional; remark: listed apart in the source
# Bacillus anthracis [49] = test: microbe, parasite or virus in culture; assay type: functional; remark: listed apart in the source
# Bacillus anthracis [50] = test: microbe, parasite or virus in culture; assay type: functional; remark: listed apart in the source
# Bacillus anthracis [51] = test: microbe, parasite or virus in culture; assay type: functional; remark: listed apart in the source
# Bacillus anthracis [52] = test: microbe, parasite or virus in culture; assay type: functional; remark: listed apart in the source
# Bacillus anthracis [53] = test: f%TMIC in Bacillus anthracis Ames infected pharmacokinetic-pharmacodynamic model at 0.12 ug/ml; assay type: functional
# [54] = f%TMIC in ip dosed Bacillus anthracis Ames infected BALB/c mouse model at ED90 administered 24 hrs postinfection at 4 hrs interval for 14 days measured on day 27; assay type: functional
# Bacillus anthracis [55] = test: microbe, parasite or virus in culture; assay type: functional; remark: listed apart in the source
compound,measurement,setting,value
Cc1oc(=O)oc1COC(=O)C1=C([C@H]2CCCO2)S[C@@H]2[C@@H]([C@@H](C)O)C(=O)N12 [FAROPENEM MEDOXOMIL],survival at 80 mg/kg,Bacillus anthracis [1],22.2%
same,survival at 20 mg/kg,Bacillus anthracis [2],10%
same,fraction unbound at 5 ug/ml,[3],0.15
same,MIC,Bacillus anthracis [4],0.12 µg/mL
same,fT>MIC,Bacillus anthracis [5],32%
same,fraction unbound at 1000 ug/ml,Homo sapiens [6],0.787
same,MIC,Bacillus anthracis [7],0.25 µg/mL
same,fT>MIC,[8],10.6%
same,fraction unbound at 5 ug/ml,Homo sapiens [9],0.1
same,survival at 20 mg/kg,Bacillus anthracis [10],60%
same,fT>MIC,Bacillus anthracis [11],44%
same,survival at 80 mg/kg,Bacillus anthracis [12],90%
same,MIC,Streptococcus pneumoniae [13],0.008 µg/mL
same,MIC,Bacillus anthracis [14],> 64 µg/mL
same,inhibition,Bacillus anthracis [15],Active
same,survival at 20 mg/kg,Bacillus anthracis [16],80%
same,fT>MIC,[17],16.4%
same,survival at 80 mg/kg,Bacillus anthracis [18],100%
same,MIC,Bacillus anthracis [19],≤ 0.06 µg/mL
same,MIC,Bacillus anthracis [20],0.12 µg/mL
same,survival at 10 mg/kg,Bacillus anthracis [21],0%
same,fraction unbound at 1000 ug/ml,[22],0.82
same,MIC,Bacillus anthracis [23],≤ 0.06 µg/mL
same,MIC,Bacillus anthracis [24],0.12 µg/mL
same,fT>MIC,[25],62%
same,MIC,Bacillus anthracis [26],0.12 µg/mL
same,MIC,Bacillus anthracis [27],0.25 µg/mL
same,MIC,Bacillus anthracis [28],≤ 0.06 µg/mL
same,MIC,Bacillus anthracis [29],0.25 µg/mL
same,MIC,Bacillus anthracis [30],0.25 µg/mL
same,fT>MIC,Streptococcus pneumoniae [31],13.9%
same,MIC,Bacillus anthracis [32],0.12 µg/mL
same,MIC,Bacillus anthracis [33],0.12 µg/mL
same,MIC,Bacillus anthracis [34],≤ 0.06 µg/mL
same,survival at 40 mg/kg,Bacillus anthracis [35],90%
same,MIC,Bacillus anthracis [36],0.06 µg/mL
same,MIC,Bacillus anthracis [37],≤ 0.06 µg/mL
same,MIC,Bacillus anthracis [38],≤ 0.06 µg/mL
same,survival at 10 mg/kg,Bacillus anthracis [39],30%
same,MIC,Bacillus anthracis [40],0.12 µg/mL
same,survival at 40 mg/kg,Bacillus anthracis [41],80%
same,survival at 10 mg/kg,Bacillus anthracis [42],77.8%
same,MIC,Bacillus anthracis [43],0.12 µg/mL
same,survival at 40 mg/kg,Bacillus anthracis [44],20%
same,MIC,Bacillus anthracis [45],≤ 0.06 µg/mL
same,MIC,Bacillus anthracis [46],0.12 µg/mL
same,MIC,Bacillus anthracis [47],≤ 0.06 µg/mL
same,MIC,Bacillus anthracis [48],0.12 µg/mL
same,MIC,Bacillus anthracis [49],1 µg/mL
same,MIC,Bacillus anthracis [50],0.12 µg/mL
same,MIC,Bacillus anthracis [51],≤ 0.06 µg/mL
same,MIC,Bacillus anthracis [52],0.12 µg/mL
same,fT>MIC,Bacillus anthracis [53],51%
same,fT>MIC,[54],13.4%
same,MIC,Bacillus anthracis [55],0.5 µg/mL
